Experimental data as given in patent US5672715A, “Herbicidal substituted 3-aryl-pyrazoles” (Monsanto Company, priority 1995, dated 1997).
Read-outs that look alike come from different tables or passages of the source.

How the values were obtained:
Type in all cases: in vivo
Barnyardgrass [1] = experiment: pre-emergence herbicide test; details: Echinochloa crus-galli, pre-emergence, read-out: % plant inhibition
How it was run: (§1)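 Greenhouse pan assay in which seeds lie under a treated topsoil cover; carrier was acetone or water. Inhibition (%) was recorded about 14 days post-treatment.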

Cocklebur = experiment: pre-emergence herbicide test; details: Xanthium strumarium, pre-emergence, read-out: % plant inhibition
How it was run: as §1

Corn = experiment: pre-emergence herbicide test; details: Zea mays, pre-emergence, read-out: % plant inhibition
How it was run: as §1

Morning Glory [2] = experiment: pre-emergence herbicide test; details: Ipomoea, pre-emergence, read-out: % plant inhibition
How it was run: as §1

Rice = experiment: pre-emergence herbicide test; details: Oryza sativa, read-out: % plant inhibition
How it was run: as §1

Soybean [3] = experiment: pre-emergence herbicide test; details: Glycine max, pre-emergence, read-out: % plant inhibition
How it was run: as §1

Velvetleaf [4] = experiment: pre-emergence herbicide test; details: Abutilon theophrasti, pre-emergence, read-out: % plant inhibition
How it was run: as §1

Yellow Foxtail [5] = experiment: pre-emergence herbicide test; details: Setaria, read-out: % plant inhibition
How it was run: as §1

Yellow Nutsedge = experiment: pre-emergence herbicide test; details: Cyperus, read-out: % plant inhibition
How it was run: as §1

Barnyardgrass [6] = experiment: post-emergence herbicide test; details: Echinochloa crus-galli, post-emergence, read-out: % plant inhibition
How it was run: (§2)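 Sown pans kept on a greenhouse bench with irrigation or subirrigation until plants reached two to three weeks, then sprayed at 170.3 kPa (10 psig). Spray mix held about 0.4% by volume emulsifier; total volume 1870 L/Ha. Result expressed as percent inhibition.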

Blackgrass = experiment: post-emergence herbicide test; details: Alopecurus myosuroides, post-emergence, read-out: % plant inhibition; for inhibition at 40.0143 g/ha: 0.0357 lb/A; for inhibition at 200.072 g/ha: 0.1785 lb/A; for inhibition at 1000.92 g/ha: 0.893 lb/A; for inhibition at 5043.82 g/ha: 4.5 lb/A
How it was run: as §2

Common Chickweed = experiment: post-emergence herbicide test; details: post-emergence, read-out: % plant inhibition
How it was run: as §2

Morning Glory [7] = experiment: post-emergence herbicide test; details: Ipomoea, post-emergence, read-out: % plant inhibition
How it was run: as §2

Soybean [8] = experiment: post-emergence herbicide test; details: Glycine max, post-emergence, read-out: % plant inhibition
How it was run: as §2

Velvetleaf [9] = experiment: post-emergence herbicide test; details: Abutilon theophrasti, post-emergence, read-out: % plant inhibition
How it was run: as §2

Yellow Foxtail [10] = experiment: post-emergence herbicide test; details: Setaria, read-out: % plant inhibition
How it was run: as §2

Compound: Cc1c(-c2cc(O)c(Cl)cc2F)nn(C)c1C(F)(F)F [Compound 40]
- inhibition at 40.0143 g/ha (Barnyardgrass [1]; 0.0357 lb/A): 0%
- inhibition at 200.072 g/ha (Barnyardgrass [1]; 0.1785 lb/A): 0%
- inhibition at 1000.92 g/ha (Barnyardgrass [1]; 0.893 lb/A): 35%
- inhibition at 5043.82 g/ha (Barnyardgrass [1]; 4.5 lb/A): 100%
- inhibition at 40.0143 g/ha (Cocklebur; 0.0357 lb/A): 0%
- inhibition at 200.072 g/ha (Cocklebur; 0.1785 lb/A): 0%
- inhibition at 1000.92 g/ha (Cocklebur; 0.893 lb/A): 45%
- inhibition at 5043.82 g/ha (Cocklebur; 4.5 lb/A): 100%
- inhibition at 40.0143 g/ha (Corn; 0.0357 lb/A): 0%
- inhibition at 200.072 g/ha (Corn; 0.1785 lb/A): 0%
- inhibition at 1000.92 g/ha (Corn; 0.893 lb/A): 5%
- inhibition at 5043.82 g/ha (Corn; 4.5 lb/A): 85%
- inhibition at 40.0143 g/ha (Morning Glory [2]; 0.0357 lb/A): 0%
- inhibition at 200.072 g/ha (Morning Glory [2]; 0.1785 lb/A): 0%
- inhibition at 1000.92 g/ha (Morning Glory [2]; 0.893 lb/A): 50%
- inhibition at 5043.82 g/ha (Morning Glory [2]; 4.5 lb/A): 100%
- inhibition at 40.0143 g/ha (Rice; 0.0357 lb/A): 0%
- inhibition at 200.072 g/ha (Rice; 0.1785 lb/A): 0%
- inhibition at 1000.92 g/ha (Rice; 0.893 lb/A): 0%
- inhibition at 5043.82 g/ha (Rice; 4.5 lb/A): 65%
- inhibition at 40.0143 g/ha (Soybean [3]; 0.0357 lb/A): 0%
- inhibition at 200.072 g/ha (Soybean [3]; 0.1785 lb/A): 0%
- inhibition at 1000.92 g/ha (Soybean [3]; 0.893 lb/A): 20%
- inhibition at 5043.82 g/ha (Soybean [3]; 4.5 lb/A): 20%
- inhibition at 40.0143 g/ha (Velvetleaf [4]; 0.0357 lb/A): 0%
- inhibition at 200.072 g/ha (Velvetleaf [4]; 0.1785 lb/A): 0%
- inhibition at 1000.92 g/ha (Velvetleaf [4]; 0.893 lb/A): 60%
- inhibition at 5043.82 g/ha (Velvetleaf [4]; 4.5 lb/A): 100%
- inhibition at 40.0143 g/ha (Yellow Foxtail [5]; 0.0357 lb/A): 0%
- inhibition at 200.072 g/ha (Yellow Foxtail [5]; 0.1785 lb/A): 0%
- inhibition at 1000.92 g/ha (Yellow Foxtail [5]; 0.893 lb/A): 80%
- inhibition at 5043.82 g/ha (Yellow Foxtail [5]; 4.5 lb/A): 100%
- inhibition at 40.0143 g/ha (Yellow Nutsedge; 0.0357 lb/A): 0%
- inhibition at 200.072 g/ha (Yellow Nutsedge; 0.1785 lb/A): 0%
- inhibition at 1000.92 g/ha (Yellow Nutsedge; 0.893 lb/A): 70%
- inhibition at 5043.82 g/ha (Yellow Nutsedge; 4.5 lb/A): 0%
- inhibition at 40.0143 g/ha (Barnyardgrass [6]; 0.0357 lb/A): 0%
- inhibition at 200.072 g/ha (Barnyardgrass [6]; 0.1785 lb/A): 0%
- inhibition at 1000.92 g/ha (Barnyardgrass [6]; 0.893 lb/A): 65%
- inhibition at 5043.82 g/ha (Barnyardgrass [6]; 4.5 lb/A): 85%
- inhibition at 40.0143 g/ha (Blackgrass; Table 4a): 0%
- inhibition at 40.0143 g/ha (Blackgrass; Table 5a): 0%
- inhibition at 200.072 g/ha (Blackgrass; Table 4a): 0%
- inhibition at 200.072 g/ha (Blackgrass; Table 5a): 35%
- inhibition at 1000.92 g/ha (Blackgrass; Table 4a): 50%
- inhibition at 1000.92 g/ha (Blackgrass; Table 5a): 65%
- inhibition at 5043.82 g/ha (Blackgrass; Table 4a): 30%
- inhibition at 5043.82 g/ha (Blackgrass; Table 5a): 100%
- inhibition at 40.0143 g/ha (Common Chickweed; 0.0357 lb/A): 15%
- inhibition at 200.072 g/ha (Common Chickweed; 0.1785 lb/A): 50%
- inhibition at 1000.92 g/ha (Common Chickweed; 0.893 lb/A): 98%
- inhibition at 5043.82 g/ha (Common Chickweed; 4.5 lb/A): 98%
- inhibition at 40.0143 g/ha (Morning Glory [7]; 0.0357 lb/A): 50%
- inhibition at 200.072 g/ha (Morning Glory [7]; 0.1785 lb/A): 70%
- inhibition at 1000.92 g/ha (Morning Glory [7]; 0.893 lb/A): 80%
- inhibition at 5043.82 g/ha (Morning Glory [7]; 4.5 lb/A): 100%
- inhibition at 40.0143 g/ha (Soybean [8]; 0.0357 lb/A): 25%
- inhibition at 200.072 g/ha (Soybean [8]; 0.1785 lb/A): 30%
- inhibition at 1000.92 g/ha (Soybean [8]; 0.893 lb/A): 70%
- inhibition at 5043.82 g/ha (Soybean [8]; 4.5 lb/A): 80%
- inhibition at 40.0143 g/ha (Velvetleaf [9]; 0.0357 lb/A): 55%
- inhibition at 200.072 g/ha (Velvetleaf [9]; 0.1785 lb/A): 75%
- inhibition at 1000.92 g/ha (Velvetleaf [9]; 0.893 lb/A): 100%
- inhibition at 5043.82 g/ha (Velvetleaf [9]; 4.5 lb/A): 100%
- inhibition at 40.0143 g/ha (Yellow Foxtail [10]; 0.0357 lb/A): 0%
- inhibition at 200.072 g/ha (Yellow Foxtail [10]; 0.1785 lb/A): 0%
- inhibition at 1000.92 g/ha (Yellow Foxtail [10]; 0.893 lb/A): 10%
- inhibition at 5043.82 g/ha (Yellow Foxtail [10]; 4.5 lb/A): 100%
